According to patent US10226453B2, “3-(1H-indol-2-yl)-1H-pyrazolo[4,3-B]pyridines and therapeutic uses thereof” (Samumed, LLC, priority 2015, dated 2019):

These compounds were tested on IL-6 (THP-1 cells) (assay: IL-6 inhibition in LPS-stimulated THP-1 human monocyte cells (HTRF)). Settings: LPS 500 ng/mL, 22 hours, IL6 HTRF.
Format: cell-based
Method in brief: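 THP-1 cells, serum-reduced (1% FBS) for 24 h, were preincubated with compound (10-point 1:3 series from 10 μM, 0.1% DMSO) for 2 h, then stimulated with 500 ng/mL LPS for 22 h at 37° C. IL-6 was read by HTRF (665/620 nm ratio) and normalized to DMSO. EC50 from four-parameter fit; % inhibition at 10 μM given if EC50 >10 μM.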
CC(C)(C)C(=O)Nc1cncc(-c2ccc3[nH]nc(-c4cc5c(-c6cccc(F)c6)cccc5[nH]4)c3n2)c1 [Compound 8, N-(5-(3-(4-(3-Fluorophenyl)-1H-indol-2-yl)-1H-pyrazolo[4,3-b]pyridin-5-yl)pyridin-3-yl)pivalamide] showed an EC50 of 2720 nM. For CN(C)Cc1cncc(-c2ccc3[nH]nc(-c4cc5c(-c6ccc(F)cc6)cccc5[nH]4)c3n2)c1 [Compound 41, 1-(5-(3-(4-(4-Fluorophenyl)-1H-indol-2-yl)-1H-pyrazolo[4,3-b]pyridin-5-yl)pyridin-3-yl)-N,N-dimethylmethanamine], the EC50 was 549 nM. Fc1ccc(-c2cccc3[nH]c(-c4n[nH]c5ccc(-c6cncnc6)nc45)cc23)cc1 [Compound 55, 3-(4-(4-Fluorophenyl)-1H-indol-2-yl)-5-(pyrimidin-5-yl)-1H-pyrazolo[4,3-b] pyridine] was tested, and the EC50 was 103 nM. Fc1ccccc1-c1cccc2[nH]c(-c3n[nH]c4ccc(-c5cncc(CN6CCCCC6)c5)nc34)cc12 [Compound 71, 3-(4-(2-Fluorophenyl)-1H-indol-2-yl)-5-(5-(piperidin-1-ylmethyl)pyridin-3-yl)-1H-pyrazolo[4,3-b]pyridine] gave an EC50 of 271 nM. Fc1ccccc1-c1cccc2[nH]c(-c3n[nH]c4ccc(-c5cncc(CNCc6ccccc6)c5)nc34)cc12 [Compound 80, N-Benzyl-1-(5-(3-(4-(2-fluorophenyl)-1H-indol-2-yl)-1H-pyrazolo[4,3-b]pyridin-5-yl)pyridin-3-yl)methanamine] was tested, and the EC50 was 6730 nM. For c1cncc(-c2ccc3[nH]nc(-c4cc5c(-c6cccnc6)cccc5[nH]4)c3n2)c1 [Compound 88, 5-(Pyridin-3-yl)-3-(4-(pyridin-3-yl)-1H-indol-2-yl)-1H-pyrazolo[4,3-b] pyridine], the EC50 was 31 nM. CN(C)Cc1cncc(-c2ccc3[nH]nc(-c4cc5c(-c6cccnc6)cccc5[nH]4)c3n2)c1 [Compound 97, N,N-Dimethyl-1-(5-(3-(4-(pyridin-3-yl)-1H-indol-2-yl)-1H-pyrazolo[4,3-b]pyridin-5-yl)pyridin-3-yl)methanamine] gave an EC50 of 154 nM. For Nc1cncc(-c2ccc3[nH]nc(-c4cc5c(-c6ccncc6)cccc5[nH]4)c3n2)c1 [Compound 115, 5-(3-(4-(Pyridin-4-yl)-1H-indol-2-yl)-1H-pyrazolo[4,3-b]pyridin-5-yl) pyridin-3-amine], the EC50 was 52 nM. Compound Cc1ccncc1-c1ccc2[nH]nc(-c3cc4c(-c5ccncc5)cccc4[nH]3)c2n1 [Compound 117, 5-(4-Methylpyridin-3-yl)-3-(4-(pyridin-4-yl)-1H-indol-2-yl)-1H-pyrazolo [4,3-b]pyridine] has an EC50 of 21 nM. Compound c1cc(-c2ccncc2)c2cc(-c3n[nH]c4ccc(-c5cncc(CN6CCCCC6)c5)nc34)[nH]c2c1 [Compound 127, 5-(5-(Piperidin-1-ylmethyl)pyridin-3-yl)-3-(4-(pyridin-4-yl)-1H-indol-2-yl)-1H-pyrazolo[4,3-b]pyridine] has an EC50 of 483 nM. c1cc(-c2ccncc2)c2cc(-c3n[nH]c4ccc(-c5cncc(CNCC6CCCC6)c5)nc34)[nH]c2c1 [Compound 137, 1-Cyclopentyl-N-((5-(3-(4-(pyridin-4-yl)-1H-indol-2-yl)-1H-pyrazolo[4,3-b]pyridin-5-yl)pyridin-3-yl)methyl)methanamine] was tested, and the EC50 was 3240 nM. Work on c1ccc(-c2ccc3[nH]nc(-c4cc5c(-c6ccncc6)cccc5[nH]4)c3n2)nc1 [Compound 140, 5-(Pyridin-2-yl)-3-(4-(pyridin-4-yl)-1H-indol-2-yl)-1H-pyrazolo[4,3-b] pyridine] yielded an EC50 of 249 nM. Compound FC1(F)CCN(Cc2cncc(-c3ccc4[nH]nc(-c5cc6c(-c7ccccn7)cccc6[nH]5)c4n3)c2)C1 [Compound 166, 5-(5-((3,3-Difluoropyrrolidin-1-yl)methyl)pyridin-3-yl)-3-(4-(pyridin-2-yl)-1H-indol-2-yl)-1H-pyrazolo[4,3-b]pyridine] has an EC50 of 306 nM. In the case of c1ccc(-c2cccc3[nH]c(-c4n[nH]c5ccc(-c6cncnc6)nc45)cc23)nc1 [Compound 167, 3-(4-(Pyridin-2-yl)-1H-indol-2-yl)-5-(pyrimidin-5-yl)-1H-pyrazolo[4,3-b] pyridine], the EC50 is reported as > 10000 nM. CCCCC(=O)Nc1cncc(-c2ccc3[nH]nc(-c4cc5c(N6CCCCC6)cccc5[nH]4)c3n2)c1 [Compound 187, N-(5-(3-(4-(Piperidin-1-yl)-1H-indol-2-yl)-1H-pyrazolo[4,3-b]pyridin-5-yl)pyridin-3-yl)pentanamide] showed an EC50 of 85 nM. With c1ccc(-c2ccc3[nH]nc(-c4cc5c(N6CCCCC6)cccc5[nH]4)c3n2)nc1 [Compound 196, 3-(4-(Piperidin-1-yl)-1H-indol-2-yl)-5-(pyridin-2-yl)-1H-pyrazolo[4,3-b] pyridine] the EC50 was 1860 nM. Cc1ccncc1-c1ccc2[nH]nc(-c3cc4c(N5CCN(C)CC5)cccc4[nH]3)c2n1 [Compound 229, 3-(4-(4-Methylpiperazin-1-yl)-1H-indol-2-yl)-5-(4-methylpyridin-3-yl)-1H-pyrazolo[4,3-b]pyridine] gave an EC50 of 1280 nM. CN1CCN(c2cccc3[nH]c(-c4n[nH]c5ccc(-c6cncc(NC(=O)c7ccccc7)c6)nc45)cc23)CC1 [Compound 235, N-(5-(3-(4-(4-Methylpiperazin-1-yl)-1H-indol-2-yl)-1H-pyrazolo[4,3-b]pyridin-5-yl)pyridin-3-yl)benzamide] was tested, and the EC50 was 741 nM. CN1CCN(c2cccc3[nH]c(-c4n[nH]c5ccc(-c6cncnc6)nc45)cc23)CC1 [Compound 251, 3-(4-(4-Methylpiperazin-1l-yl)-1H-indol-2-yl)-5-(pyrimidin-5-yl)-1H-pyrazolo[4,3-b]pyridine] gave an EC50 of 751 nM. Work on c1cncc(-c2ccc3[nH]nc(-c4cc5ccccc5[nH]4)c3n2)c1 [Compound 256, 3-(1H-Indol-2-yl)-5-(pyridin-3-yl)-1H-pyrazolo[4,3-b]pyridine] yielded an EC50 of 13 nM. In the case of CN(C)Cc1cncc(-c2ccc3[nH]nc(-c4cc5ccccc5[nH]4)c3n2)c1 [Compound 265, 1-(5-(3-(1H-Indol-2-yl)-1H-pyrazolo[4,3-b]pyridin-5-yl)pyridin-3-yl)-N,N-dimethylmethanamine], the EC50 is reported as > 10000 nM. FC1(F)CCN(Cc2cncc(-c3ccc4[nH]nc(-c5cc6ccccc6[nH]5)c4n3)c2)C1 [Compound 278, 5-(5-((3,3-Difluoropyrrolidin-1-yl)methyl)pyridin-3-yl)-3-(1H-indol-2-yl)-1H-pyrazolo[4,3-b]pyridine] gave an EC50 of 207 nM. CN(C)c1cncc(-c2ccc3[nH]nc(-c4cc5c(-c6ccoc6)cccc5[nH]4)c3n2)c1 [Compound 315, 5-(3-(4-(Furan-3-yl)-1H-indol-2-yl)-1H-pyrazolo[4,3-b]pyridin-5-yl)-N,N-dimethylpyridin-3-amine] gave an EC50 of 1370 nM. In the case of c1cc(-c2ccoc2)c2cc(-c3n[nH]c4ccc(-c5cncc(CNCC6CCCC6)c5)nc34)[nH]c2c1 [Compound 333, 1-Cyclopentyl-N-((5-(3-(4-(furan-3-yl)-1H-indol-2-yl)-1H-pyrazolo[4,3-b]pyridin-5-yl)pyridin-3-yl)methyl)methanamine], the EC50 is reported as 3570 nM. FC1(F)CCN(Cc2cncc(-c3ccc4[nH]nc(-c5cc6c(-c7cccs7)cccc6[nH]5)c4n3)c2)C1 [Compound 362, 5-(5-((3,3-Difluoropyrrolidin-1-yl)methyl)pyridin-3-yl)-3-(4-(thiophen-2-yl)-1H-indol-2-yl)-1H-pyrazolo[4,3-b]pyridine] showed an EC50 of 6340 nM.

Same assay, conditions: LPS 500 ng/mL, given where EC50 >10 μM, 10 μM, read-out: percent inhibition at 10 μM
Compound c1ccc(-c2cccc3[nH]c(-c4n[nH]c5ccc(-c6cncnc6)nc45)cc23)nc1 [Compound 167, 3-(4-(Pyridin-2-yl)-1H-indol-2-yl)-5-(pyrimidin-5-yl)-1H-pyrazolo[4,3-b] pyridine] has an inhibition at 10 µM of 12.8%. CN(C)Cc1cncc(-c2ccc3[nH]nc(-c4cc5ccccc5[nH]4)c3n2)c1 [Compound 265, 1-(5-(3-(1H-Indol-2-yl)-1H-pyrazolo[4,3-b]pyridin-5-yl)pyridin-3-yl)-N,N-dimethylmethanamine] showed an inhibition at 10 µM of 0%.
